# Literature values in paper PMC6044621 (ACS Omega, 2016).
# Tested on: Cbx7
# Conditions: ref 13c
substance,measurement,value
UNC3866,potency as Cbx7 inhibitor,97 nM
